# Laboratory results reported in PubChem BioAssay (NCI).
# Values joined by “and” are separate entries in the source; they are usually repeats but may differ in a detail not shown here. Equal values may be shown once.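 Values below derive from 48-hour exposures of cells grown in 96-well plates, with endpoints linearly interpolated between the two concentrations bracketing the appropriate inhibition level. GI50 = concentration required for 50% inhibition of growth. TGI denotes the concentration required for complete inhibition of growth.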
# Legend:
# Assay in all cases: growth of human tumour cells (NCI), 48 h
# 786-0 renal = tested on: 786-0 renal
# A498 renal = tested on: A498 renal
# A549 NSCLC = tested on: A549 NSCLC
# ACHN renal = tested on: ACHN renal
# BT-549 breast = tested on: BT-549 breast
# CAKI-1 renal = tested on: CAKI-1 renal
# CCRF-CEM leukemia = tested on: CCRF-CEM leukemia
# COLO 205 colon = tested on: COLO 205 colon
# DU-145 prostate = tested on: DU-145 prostate
# HCC-2998 colon = tested on: HCC-2998 colon
# HCT-116 colon = tested on: HCT-116 colon
# HCT-15 colon = tested on: HCT-15 colon
# HL-60(TB) leukemia = tested on: HL-60(TB) leukemia
# HOP-62 NSCLC = tested on: HOP-62 NSCLC
# HOP-92 NSCLC = tested on: HOP-92 NSCLC
# HS 578T breast = tested on: HS 578T breast
# HT29 colon = tested on: HT29 colon
# IGROV1 ovarian = tested on: IGROV1 ovarian
# K-562 leukemia = tested on: K-562 leukemia
# KM12 colon = tested on: KM12 colon
# LOX IMVI melanoma = tested on: LOX IMVI melanoma
# M14 melanoma = tested on: M14 melanoma
# MALME-3M melanoma = tested on: MALME-3M melanoma
# MCF7 breast = tested on: MCF7 breast
# MDA-MB-231 breast = tested on: MDA-MB-231 breast
# MDA-MB-435 = tested on: MDA-MB-435
# MOLT-4 leukemia = tested on: MOLT-4 leukemia
# NCI-H226 lung = tested on: NCI-H226 lung
# NCI-H23 lung = tested on: NCI-H23 lung
# NCI-H460 lung = tested on: NCI-H460 lung
# NCI-H522 lung = tested on: NCI-H522 lung
# NCI/ADR-RES ovarian = tested on: NCI/ADR-RES ovarian
# OVCAR-3 ovarian = tested on: OVCAR-3 ovarian
# OVCAR-4 ovarian = tested on: OVCAR-4 ovarian
# OVCAR-5 ovarian = tested on: OVCAR-5 ovarian
# OVCAR-8 ovarian = tested on: OVCAR-8 ovarian
# PC-3 prostate = tested on: PC-3 prostate
# RPMI-8226 leukemia = tested on: RPMI-8226 leukemia
# RXF 393 renal = tested on: RXF 393 renal
# SF-268 CNS = tested on: SF-268 CNS
# SF-295 CNS = tested on: SF-295 CNS
# SF-539 CNS = tested on: SF-539 CNS
# SK-MEL-2 melanoma = tested on: SK-MEL-2 melanoma
# SK-MEL-28 melanoma = tested on: SK-MEL-28 melanoma
# SK-MEL-5 melanoma = tested on: SK-MEL-5 melanoma
# SK-OV-3 ovarian = tested on: SK-OV-3 ovarian
# SN12C renal = tested on: SN12C renal
# SNB-19 CNS = tested on: SNB-19 CNS
# SNB-75 CNS = tested on: SNB-75 CNS
# SR leukemia = tested on: SR leukemia
# SW-620 colon = tested on: SW-620 colon
# T-47D breast = tested on: T-47D breast
# TK-10 renal = tested on: TK-10 renal
# U251 CNS = tested on: U251 CNS
# UACC-257 melanoma = tested on: UACC-257 melanoma
# UACC-62 melanoma = tested on: UACC-62 melanoma
# UO-31 renal = tested on: UO-31 renal
smiles,measurement,setting,value
CCCCCc1c(C)[nH]c(/C=C2\N=C(c3ccc[nH]3)C=C2Oc2ccccc2)c1C,GI50,786-0 renal,17.2 nM and 11.8 nM
same,TGI,786-0 renal,43.9 nM and 45.7 nM
same,GI50,A498 renal,16.1 nM and 12.7 nM
same,TGI,A498 renal,69 nM and 50.8 nM
same,GI50,A549 NSCLC,22 nM and 11.7 nM
same,TGI,A549 NSCLC,56.9 nM and 40.1 nM
same,GI50,ACHN renal,17.3 nM
same,TGI,ACHN renal,111 nM
same,GI50,BT-549 breast,40.2 nM and 28.3 nM
same,TGI,BT-549 breast,538 nM and 1050 nM
same,GI50,CAKI-1 renal,23.3 nM
same,TGI,CAKI-1 renal,55.8 nM and 40.4 nM
same,GI50,CCRF-CEM leukemia,9.49 nM
same,TGI,CCRF-CEM leukemia,1210 nM and 2160 nM
same,GI50,COLO 205 colon,30.5 nM
same,TGI,COLO 205 colon,193 nM and 49.2 nM
same,GI50,DU-145 prostate,17.7 nM
same,TGI,DU-145 prostate,129 nM and 104 nM
same,GI50,HCC-2998 colon,17.1 nM
same,TGI,HCC-2998 colon,217 nM and 1000 nM
same,GI50,HCT-116 colon,22.8 nM
same,TGI,HCT-116 colon,129 nM
same,GI50,HCT-15 colon,19.6 nM
same,TGI,HCT-15 colon,79.8 nM and 41.3 nM
same,GI50,HL-60(TB) leukemia,38.4 nM and 15 nM
same,TGI,HL-60(TB) leukemia,343 nM and 65.6 nM
same,GI50,HOP-62 NSCLC,32.2 nM and 27.2 nM
same,TGI,HOP-62 NSCLC,1890 nM and 1180 nM
same,GI50,HOP-92 NSCLC,13.8 nM
same,TGI,HOP-92 NSCLC,57.7 nM and 32.6 nM
same,GI50,HS 578T breast,21.3 nM and 11.1 nM
same,TGI,HS 578T breast,92.5 nM and 48.7 nM
same,GI50,HT29 colon,22.6 nM
same,TGI,HT29 colon,1370 nM and 1300 nM
same,GI50,IGROV1 ovarian,39.1 nM and 24.4 nM
same,TGI,IGROV1 ovarian,1490 nM and 1230 nM
same,GI50,K-562 leukemia,26.3 nM
same,TGI,K-562 leukemia,3.41 µM
same,GI50,KM12 colon,11.3 nM
same,TGI,KM12 colon,49.4 nM and 13.8 nM
same,GI50,LOX IMVI melanoma,14.3 nM
same,TGI,LOX IMVI melanoma,31.2 nM
same,GI50,M14 melanoma,21.3 nM and 10.3 nM
same,TGI,M14 melanoma,50.4 nM and 32.2 nM
same,GI50,MALME-3M melanoma,42.4 nM and 28.6 nM
same,TGI,MALME-3M melanoma,204 nM and 115 nM
same,GI50,MCF7 breast,32.6 nM
same,TGI,MCF7 breast,442 nM and 1050 nM
same,GI50,MDA-MB-231 breast,5.56 nM
same,TGI,MDA-MB-231 breast,29.5 nM and 18.1 nM
same,GI50,MDA-MB-435,21.8 nM
same,TGI,MDA-MB-435,58 nM
same,GI50,MOLT-4 leukemia,25.4 nM and 13 nM
same,TGI,MOLT-4 leukemia,355 nM and 78.3 nM
same,GI50,NCI-H226 lung,19.1 nM and 74.5 nM
same,GI50,NCI-H23 lung,29.9 nM and 16 nM
same,TGI,NCI-H23 lung,668 nM and 387 nM
same,GI50,NCI-H460 lung,23.1 nM
same,TGI,NCI-H460 lung,1160 nM and 1050 nM
same,GI50,NCI-H522 lung,18.2 nM and 18.1 nM
same,TGI,NCI-H522 lung,101 nM and 168 nM
same,GI50,NCI/ADR-RES ovarian,48.6 nM and 27.8 nM
same,TGI,NCI/ADR-RES ovarian,255 nM and 174 nM
same,GI50,OVCAR-3 ovarian,19.1 nM and 12.2 nM
same,TGI,OVCAR-3 ovarian,64.2 nM and 40.4 nM
same,GI50,OVCAR-4 ovarian,11.3 nM
same,TGI,OVCAR-4 ovarian,265 nM and 1220 nM
same,GI50,OVCAR-5 ovarian,26.2 nM and 10.9 nM
same,TGI,OVCAR-5 ovarian,1070 nM and 377 nM
same,GI50,OVCAR-8 ovarian,27.7 nM and 15 nM
same,TGI,OVCAR-8 ovarian,138 nM and 56.7 nM
same,GI50,PC-3 prostate,30.6 nM
same,TGI,PC-3 prostate,1220 nM and 166 nM
same,GI50,RPMI-8226 leukemia,22.2 nM
same,TGI,RPMI-8226 leukemia,187 nM and 182 nM
same,GI50,RXF 393 renal,17.2 nM and 12.3 nM
same,TGI,RXF 393 renal,157 nM and 54.6 nM
same,GI50,SF-268 CNS,23.4 nM
same,TGI,SF-268 CNS,1240 nM and 1000 nM
same,GI50,SF-295 CNS,24.4 nM
same,TGI,SF-295 CNS,106 nM
same,GI50,SF-539 CNS,24.2 nM and 11.3 nM
same,TGI,SF-539 CNS,85.6 nM and 38.7 nM
same,GI50,SK-MEL-2 melanoma,17.9 nM and 13.9 nM
same,TGI,SK-MEL-2 melanoma,40.2 nM and 32.9 nM
same,GI50,SK-MEL-28 melanoma,39.8 nM and 21.1 nM
same,TGI,SK-MEL-28 melanoma,192 nM and 101 nM
same,GI50,SK-MEL-5 melanoma,16.7 nM and 10.9 nM
same,TGI,SK-MEL-5 melanoma,34 nM and 24 nM
same,GI50,SK-OV-3 ovarian,56.5 nM and 30.9 nM
same,TGI,SK-OV-3 ovarian,671 nM and 628 nM
same,GI50,SN12C renal,36.3 nM and 18 nM
same,TGI,SN12C renal,232 nM and 144 nM
same,GI50,SNB-19 CNS,58.2 nM and 38.7 nM
same,TGI,SNB-19 CNS,1460 nM and 1440 nM
same,GI50,SNB-75 CNS,24.6 nM and 17.5 nM
same,TGI,SNB-75 CNS,71.9 nM and 55.9 nM
same,GI50,SR leukemia,11.7 nM
same,GI50,SW-620 colon,24.8 nM
same,GI50,T-47D breast,21.1 nM and 14.7 nM
same,GI50,TK-10 renal,44.6 nM and 23.4 nM
same,TGI,TK-10 renal,448 nM and 152 nM
same,GI50,U251 CNS,19 nM
same,TGI,U251 CNS,104 nM and 27.9 nM
same,GI50,UACC-257 melanoma,45.4 nM and 30 nM
same,TGI,UACC-257 melanoma,354 nM and 233 nM
same,GI50,UACC-62 melanoma,16.1 nM and 11.1 nM
same,TGI,UACC-62 melanoma,31.1 nM and 27.4 nM
same,GI50,UO-31 renal,25.1 nM and 10.4 nM
same,TGI,UO-31 renal,109 nM and 24 nM
